According to article PMC4786016 (Environmental science & technology, 2015):
Counter-ions that a name gives are not always drawn. Like-named read-outs stand apart in the source and are kept apart here.

Columns and labels:
human PPARγ1 [1] = target: T1, human PPARγ1 (Homo sapiens, UniProt P37231)
PPARγ2 = settings: PPARγ2, U2OS reporter assay; cited from earlier work
human PPARγ1 [2] = target: T1, human PPARγ1; assay: GeneBLAzer PPARγ1 non-DA reporter gene assay; settings: for Emax: HEK293, read-out: ATVmax: maximal activation% of the tested compounds relative to rosiglitazone
HEK293 cells = assay: Alamar Blue cell viability assay; settings: high doses
PPARγ = settings: cited from earlier work
[3] = HEK293 PPARγ1 reporter, 15% of rosiglitazone maximal response
[4] = HEK293 PPARγ1 reporter, 20% of rosiglitazone maximal response

Row | Compound | NOAEL (human PPARγ1 [1]) | EC15 (concentration inducing 15% activation) (human PPARγ1 [2]) | EC20 (concentration inducing 20% activation) (human PPARγ1 [2]) | [ATVmax]: concentration of the tested compounds to induce the maximal activation% (human PPARγ1 [2]) | efficacy (qualitative, based on ATVmax) (human PPARγ1 [2]) | ATVmax: maximal activation% of the tested compounds relative to rosiglitazone (human PPARγ1 [2]) | also measured
1 | Brc1ccc(Oc2ccc(Br)cc2Br)c(Br)c1 [BDE47, 2,2′,4,4′-tetrabromodiphenyl ether] | 0.8 µM | 5.2 µM | 7 µM | 7 µM | ++ (key: + 7–20%; ++ 20–30%; +++ 30–40%; ++++ 40–50%; +++++ >50%) |  | 5% induction concentration (PPARγ2): 10 µM; Emax (human PPARγ1 [2]): 20%
2 | CC(C)COC(=O)c1ccccc1C(=O)OCC(C)C [DiBP, diisobutyl phthalate] | 0.4 µM | 4.47 µM | 11.1 µM | 33 µM | ++ (key: + 7–20%; ++ 20–30%; +++ 30–40%; ++++ 40–50%; +++++ >50%) |  | Emax (human PPARγ1 [2]): 25%
3 | Oc1c(I)cc(I)cc1I [2,4,6-TIP, 2,4,6-triiodinated phenol] | 0.4 µM | 8.72 µM | 11 µM | 11 µM | ++ (key: + 7–20%; ++ 20–30%; +++ 30–40%; ++++ 40–50%; +++++ >50%) | 20% | 
4 | CC(C)(C)c1ccc(OP(=O)(Oc2ccc(C(C)(C)C)cc2)Oc2ccc(C(C)(C)C)cc2)cc1 [TBPP, tris (4,tert-butyl-phenyl) phosphate] | 0.4 µM |  |  | 11 µM | + (key: + 7–20%; ++ 20–30%; +++ 30–40%; ++++ 40–50%; +++++ >50%) | 12% | 
5 | Firemaster 550 (mixture) [FM550] | 1.2 µM |  |  |  |  |  | 
6 | Oc1c(Br)cc(Br)cc1Br [2,4,6-TBP, 2,4,6-tribrominated phenol] | 0.8 µM | 5.89 µM |  | 7 µM | + (key: + 7–20%; ++ 20–30%; +++ 30–40%; ++++ 40–50%; +++++ >50%) | 18% | 
7 | CCCCC(CC)COC(=O)c1c(Br)c(Br)c(Br)c(Br)c1C(=O)O (centres unmarked) [TBMEHP, mono-(2-ethyhexyl) tetrabromophthalate (metabolite)] | 0.13 µM | 0.53 µM | 0.78 µM | 3.3 µM | ++++ (key: + 7–20%; ++ 20–30%; +++ 30–40%; ++++ 40–50%; +++++ >50%) | 40% | cell viability (in words) (HEK293 cells): reduced viability at higher dosing levels
8 | O=C(O)c1cc(Br)c(Br)c(Br)c1Br [TBBA, 2,3,4,5-tetrabromobenzoic acid (metabolite)] | 1.2 µM | 8.16 µM | 33 µM |  | ++ (key: + 7–20%; ++ 20–30%; +++ 30–40%; ++++ 40–50%; +++++ >50%) | 20% | 
9 | CN(CCOc1ccc(CC2SC(=O)NC2=O)cc1)c1ccccn1 (centres unmarked) [Rosi., rosiglitazone (positive control), reference compound] |  |  |  |  |  |  | NOAEL (human PPARγ1 [2]; HEK293 PPARγ1 reporter, nonobservable adverse effect level): 0.00001 µM
10 | O=P(Oc1ccccc1)(Oc1ccccc1)Oc1ccccc1 [TPP, triphenyl phosphate] | 0.4 µM | 2.12 µM | 3.27 µM | 11 µM | ++++ (key: + 7–20%; ++ 20–30%; +++ 30–40%; ++++ 40–50%; +++++ >50%) | 43% | concentration at which the compound began to activate PPARγ1 (human PPARγ1 [2]): about 0.4 μM
11 | tri-isopropylated triaryl phosphates [Tri-ITP] | 1.2 µM | 5.7 µM | 7.76 µM | 33 µM | ++++ (key: + 7–20%; ++ 20–30%; +++ 30–40%; ++++ 40–50%; +++++ >50%) | 41% | concentration at which the compound began to activate PPARγ1 (human PPARγ1 [2]): 1.2 µM
12 | di-isopropylated triaryl phosphates [Di-ITP] | 1.2 µM | 3.25 µM |  | 3.6 µM | + (key: + 7–20%; ++ 20–30%; +++ 30–40%; ++++ 40–50%; +++++ >50%) | 16% | cell viability (in words) (HEK293 cells): Highly reduced cell viability
13 | isopropylated triaryl phosphates (mixture) [ITP] | 1.2 µM |  |  |  |  |  | 
14 | tri(2-butoxyethanol) phosphate [TBOEP] |  |  |  | 11 µM | + (key: + 7–20%; ++ 20–30%; +++ 30–40%; ++++ 40–50%; +++++ >50%) | 13% | PPARγ binding potency (in words) (PPARγ): significant binding potential at the highest dose level tested
15 | CCCCOC(=O)c1ccccc1C(=O)OCCCC [DBP, dibutyl phthalate] | 0.4 µM |  |  |  |  |  | Emax (human PPARγ1 [2]): 23%; [ATVmax]: concentration of the tested compounds to induce the maximal activation% (human PPARγ1 [2]; HEK293 PPARγ1 reporter): 33 µM; efficacy (qualitative, based on ATVmax) (human PPARγ1 [2]; HEK293 PPARγ1 reporter): ++ (++ 20–30%); EC15 (concentration inducing 15% activation) (human PPARγ1 [2]; [3]): 6.73 µM; EC20 (concentration inducing 20% activation) (human PPARγ1 [2]; [4]): 13.6 µM
16 | CCCCC(CC)COC(=O)/C=C/C(=O)OCC(CC)CCCC (centres unmarked) [BEHF, bis(2-ethylhexyl) fumarate] |  |  |  |  |  |  | Emax (human PPARγ1 [2]): < 8%; PPARγ1 activation (in words) (human PPARγ1 [2]; reporter assay): did not display any obvious PPARγ1 activation
17 | Oc1cc(Br)cc(Br)c1Oc1ccc(Br)cc1Br [6-OH-BDE47, 6-hydroxide-2,2′,4,4′-tetrabromodiphenyl ether (metabolite)] |  |  |  |  |  | <8% | PPARγ1 activation (in words) (human PPARγ1 [2]): no activation was observed
18 | CCCCOC(=O)c1ccccc1C(=O)OCc1ccccc1 [BzBP, benzylbutyl phthalate] | 0.13 µM | 2.94 µM | 4.81 µM | 10 µM | +++ (key: + 7–20%; ++ 20–30%; +++ 30–40%; ++++ 40–50%; +++++ >50%) | 34% | 
19 | Oc1cc(Cl)ccc1Oc1ccc(Cl)cc1Cl [TCS, triclosan] |  |  |  |  |  |  | PPARγ binding potency (in words) (PPARγ): moderate binding potency; PPARγ1 activation (in words) (human PPARγ1 [2]): did not initiate any activation of PPARγ1; Emax (human PPARγ1 [2]): < 8%
20 | CC(C)(c1cc(Cl)c(O)c(Cl)c1)c1cc(Cl)c(O)c(Cl)c1 [TCBPA, 3,5,3′,5′-tetrachlorobisphenol A] | 0.09 µM |  |  |  |  |  | [ATVmax]: concentration of the tested compounds to induce the maximal activation% (human PPARγ1 [2]; HEK293 PPARγ1 reporter): 7 µM; efficacy (qualitative, based on ATVmax) (human PPARγ1 [2]; HEK293 PPARγ1 reporter): +++++ (+++++ >50%); EC15 (concentration inducing 15% activation) (human PPARγ1 [2]; [3]): 0.23 µM; EC20 (concentration inducing 20% activation) (human PPARγ1 [2]; [4]): 0.47 µM; ATVmax: maximal activation% of the tested compounds relative to rosiglitazone (human PPARγ1 [2]; HEK293 PPARγ1 reporter, normalized to maximal response of rosiglitazone): 52%
21 | CCCCC/C=C/C=C1/C(=O)C=C[C@@H]1C/C=C\CCCC(=O)O [15d-PJG2, 15-Deoxy-D12,14-prostaglandin J2 (endogenous ligands), reference compound] | 0.01 µM | 0.51 µM | 0.74 µM | 33 µM | +++++ (key: + 7–20%; ++ 20–30%; +++ 30–40%; ++++ 40–50%; +++++ >50%) | 85% | concentration at which the compound began to activate PPARγ1 (human PPARγ1 [2]): 0.01 µM
22 | CCCCC(CC)COC(=O)c1ccccc1C(=O)OCC(CC)CCCC (centres unmarked) [DEHP, bis(2-ethylhexyl) phthalate] |  |  |  |  |  |  | PPARγ1 activation (in words) (human PPARγ1 [2]; reporter assay): no activation was observed
23 | c1ccc(OP(Oc2ccccc2)Oc2ccccc2)cc1 [TPPi, triphenyl phosphite] | 1.2 µM |  |  |  |  |  | 
24 | monoisopropylated triaryl phosphates [mono-ITP] | 1.2 µM | 3.6 µM |  | 3.6 µM | + (key: + 7–20%; ++ 20–30%; +++ 30–40%; ++++ 40–50%; +++++ >50%) | 15% | cell viability (in words) (HEK293 cells): Highly reduced cell viability
25 | tert-butyl phenyl diphenyl phosphate (mixture) [BPDP] | 0.4 µM |  |  |  |  |  | 
26 | Oc1c(Br)ccc(Oc2ccc(Br)cc2Br)c1Br [3-OH-BDE47, 3-hydroxide-2,2′,4,4′-tetrabromodiphenyl ether (metabolite)] | 0.8 µM | 2.01 µM | 2.993 µM | 7 µM | ++++ (key: + 7–20%; ++ 20–30%; +++ 30–40%; ++++ 40–50%; +++++ >50%) | 42% | PPARγ binding potency (in words) (PPARγ): comparable binding potency to rosiglitazone; concentration at which the compound began to activate PPARγ1 (human PPARγ1 [2]): 0.8 µM
27 | [Cl][Sn]([c]1ccccc1)([c]1ccccc1)[c]1ccccc1 [TPT, triphenyltin chloride] | 0.0003 µM | 0.004 µM | 0.01 µM | 0.33 µM | +++++ (key: + 7–20%; ++ 20–30%; +++ 30–40%; ++++ 40–50%; +++++ >50%) | 54% | 
